# In article PMC6479402, “Anti-Herpetic, Anti-Dengue and Antineoplastic Activities of Simple and Heterocycle-Fused Derivatives of Terpenyl-1,4-Naphthoquinone and 1,4-Anthraquinone” (Molecules, 2019):
# Read-outs that look alike come from different tables or passages of the source.
# Experiments:
# [1] = system: Vero; experiment: MTT cytotoxicity assay, non-tumor cells; format: cell-based, Cercopithecus aethiops; conditions: for IC50: Chlorocebus sabaeus
# Protocol: The in vitro cytotoxicity evaluation of quinones was performed using the 3-(4,5 dimethylthiazol-2-yl)-2,5-diphenyltetrazolium bromide (MTT, Sigma, Cream Ridge, NJ, USA) assay as described by Betancur-Galvis et al. 2002 [22]. Briefly, Vero and HeLa cell lines were seeded at 2.0 × 10^3 cells per well of 96-well plates in DMEM supplemented with 10% of inactivated FBS, and were incubated for 24 h at 37 °C, 5% CO2. Then, each diluted molecule was added to the cells and incubated for further 48 h at 37 °C, 5% CO2. Jurkat cell line at 3 × 10^3 cells per well in a 96-well round-bottomed plate and diluted substances in RPMI-1640 medium (Sigma) supplemented with 10% FBS were plated simultaneously. After 48 h of treatment at 37 °C, 5% CO2, the media was carefully removed and 28 µL of MTT solution (4 mg/mL) was added to each well, and the plates were incubated for 2 h at 37 °C, 5% CO2. The DMSO was then added to dissolve the formed formazan crystals and absorbance was determined spectrophotometrically at 570 nm.
# The minimal dilution of compound that caused 50% inhibition of the cells (IC50) was calculated by linear regression analysis of the dose-response curves generated from the absorbance data with the statistical GraphPad Prisma 5.0. IC50 values were expressed as the mean ± standard deviation (M ± SD) of two independent experiments done in quadruplicate.
# [2] = system: DENV-2; experiment: Plaque reduction assay, simultaneous and post-infection treatment, BHK-21 cells; format: cell-based, Dengue virus type 2; conditions: post-infective stages, ribavirin 3.7 µg/mL
# Protocol: (§1) To define the stage of the viral replicative cycle where NQ 4 exerts its action, simultaneous and post-infection treatments against HHV-1 and HHV-2 were performed. […] First, we determined the inhibitory concentration 50% (IC50) for the compound and drug positive controls on infected cells and their effects on non-tumoral Vero cells, to define the concentration of evaluation and to calculate the antiviral selectivity index (SI). Then, the concentration of NQ 4 that reduced the number of viral plaques by 50% (EC50) was determined from the dose-response curves.
# Against DENV, the effect of NQ 4 either simultaneously or post-infection was also evaluated by the plaque reduction assay as previously described. Concentrations employed for this assay were from 0.4 µg/mL to 1.6 µg/mL. In this test, BHK-21 cell monolayers grown in 24-well plates were infected with 100 PFU/well of DENV-2 and treatments were performed in the same way to describe for Herpesviruses. Moreover, the monolayers were incubated for 6 days, fixed and stained with a solution of 3.5% formaldehyde with 0.2% crystal violet, and the viral plaques were counted. Heparin (H) was included as a positive control in the simultaneous assay, and ribavirin (R) was the positive control in after infection treatment.
# [3] = system: Human Herpesvirus type 2 (HHV-2); experiment: End-point titration technique (EPTT), anti-herpetic screening on infected Vero cells; format: cell-based, Human Herpesvirus 2
# Protocol: (§2) The in vitro antiviral evaluation of the 27 substances against Human Herpesvirus type 1 (HHV-1) and 2 (HHV-2) was made on infected Vero cells, using the end-point titration technique (EPTT).
# (§3) The antiviral activity of molecules against 1 and 10 Cell Culture Infectious Dose 50% (10TCID50) of HHV-1 and HHV-2, respectively, was determined using end-point titration technique (EPTT). Vero cells grown in 96-well plates at a density of 2.0 × 10^4 cells/well were incubated at 37 °C in 5% CO2 atmosphere until constitute 80% of cell monolayer. Then, viral suspensions of HHV-1 or HHV-2 with concentrations of 6.25 µg/mL to 50 µg/mL of compounds were performed in DMEM supplemented with 2% FBS containing 1% and 0.5% carboxymethylcellulose (CMC) for HHV-1 and HHV-2, respectively. Mixture was incubated during 15 minutes at room temperature and was added to the cell monolayer. After 48 h of incubation at 37 °C (5% CO2), the cytopathic effect was examined, the microplates were fixed with 3.5% formaldehyde and stained with 0.2% crystal violet. Two independent experiments by quadruplicate for each viral serotype and each were carried out. Positive controls, such as dextran sulfate (DS) and acyclovir (A) for early stages and late stages of infection, respectively, were included.
# [4] = system: HHV-1; experiment: Plaque reduction assay, simultaneous and post-infection treatment, Vero cells; format: cell-based, Human Herpesvirus 1
# Protocol: as §1
# (§4) The potential antiviral mechanism of NQ 4 was evaluated by the plaque reduction assay as previously described by us. Vero cell monolayers grown in 24-well plates were infected with 100 PFU/well of each virus. For simultaneous treatment, the compound and the virus were added simultaneously to the cell monolayers and incubated for 1 h at 37 °C (5% CO2). Then, cells were washed with phosphate buffered saline (PBS, pH = 7.0) and CMC at 1% and 0.75% was added for HHV-1 and HHV-2, respectively. In post-infection treatment, virus was added to cell monolayer and incubated for 1 h at 37 °C (5% CO2). After incubation, washing was performed with PBS and molecule previously prepared in CMC 1% and 0.75% for HHV-1 and HHV-2 respectively, was added. In both treatments, NQ 4 was prepared at concentrations from 0.4 µg/mL to 3.1 µg/mL and the cell monolayers allowed to incubate for 72 h. Subsequently, cells were fixed and stained with a solution of 3.5% formaldehyde with 0.2% crystal violet, and the viral plaques were counted. Dextran sulfate (DS) was included as positive control in simultaneous assay and acyclovir (A) was the positive control in after infection treatment.
# [5] = system: Human Herpesvirus type 1 (HHV-1); experiment: End-point titration technique (EPTT), anti-herpetic screening on infected Vero cells; format: cell-based; conditions: for Rf (reduction factor of the viral titer), HHV-1: 1 TCID50, 48 h
# Protocol: as §2, §3
# [6] = system: HHV-2; experiment: Plaque reduction assay, simultaneous and post-infection treatment, Vero cells; format: cell-based, Human Herpesvirus 2
# Protocol: as §1, §4
# [7] = system: Jurkat; experiment: MTT cytotoxicity assay; format: cell-based; conditions: Homo sapiens, Jurkat ATCC TIB-152, 48 h, read-out: IC50 ± SD, Jurkat
# Protocol: (§5) Then, each diluted molecule was added to the cells and incubated for further 48 h at 37 °C, 5% CO2. […] The DMSO was then added to dissolve the formed formazan crystals and absorbance was determined spectrophotometrically at 570 nm. […] IC50 values were expressed as the mean ± standard deviation (M ± SD) of two independent experiments done in quadruplicate.
# [8] = system: HeLa; experiment: MTT cytotoxicity assay; format: cell-based; conditions: Homo sapiens, HeLa ATCC CRL-1958, 48 h, read-out: IC50 ± SD, HeLa
# Protocol: as §5
# [9] = system: DENV-2; design: method as in PMID 20837762; conditions: low concentrations; cited from earlier work
# [10] = non-tumoral Vero cells, data not shown, read-out: IC50 on Vero cells
# [11] = post-infective stages, acyclovir 1.5 µg/mL
# [12] = Vero ATCC CCL-81, 48 h, MTT, read-out: IC50 ± SD, Vero
# [13] = simultaneous treatment, PFU, NQ 4 0.4–3.1 µg/mL, DS 5 µg/mL
Molecule,"IC50 [1, 10] [µg/mL]","Rf (reduction factor of the viral titer), HHV-1 [5]","IC50 [1, 12] [µM]",IC50 [7] [µM],IC50 [8] [µM],other results
"NC(=O)c1ncn([C@@H]2O[C@H](CO)[C@@H](O)[C@H]2O)n1 [ribavirin, reference compound]",> 400,–,–,–,–,"Antiviral activity in post-infection treatment, DENV-2 [2]: active"
"Nc1nc2c(ncn2COCCO)c(=O)[nH]1 [A, Acyclovir, reference compound]",> 400,10^4,–,–,–,"Rf (reduction factor of the viral titer), HHV-2 ([3]; 10 TCID50, 48 h): 10^4; minimal effective concentration ([3]; Human alphaherpesvirus 2, 10 TCID50, 48 h, tested 6.25-50 µg/mL, read-out: 10 TCID50: non-toxic concentration that showed viral reduction factor, HHV-2): 1.5 µg/mL; Antiviral activity in post-infection treatment, HHV-1 [4, 11]: active; minimal effective concentration ([5]; Human alphaherpesvirus 1, 1 TCID50, 48 h, tested 6.25-50 µg/mL, read-out: 1 TCID50: non-toxic concentration that showed viral reduction factor, HHV-1): 1.5 µg/mL; Antiviral activity in post-infection treatment, HHV-2 [6, 11]: active"
Cc1cc(C)c2c3c(oc2c1)C(=O)c1cc(CCCC(C)C)ccc1C3=O [HetQ 20],–,–,153 ± 4.5,42.2 ± 0.7,> 69.3,–
"COc1cccc2c1C(=O)c1c(O)c3c(c(O)c1C2=O)C[C@@](O)(C(=O)CO)C[C@@H]3O[C@H]1C[C@H](N)[C@H](O)[C@H](C)O1 [Doxorubicin, doxorubicin, reference compound]",–,–,2 ± 0.1,0.1 ± 0.01,0.9 ± 0.1,Activity against DENV-2 at very early stages of the viral replication cycle [9]: active
"Dextran sulfate [DS, reference compound]",–,10^2,–,–,–,"IC50 on Vero cells ([1]; non-tumoral Vero cells, data not shown): > 400 µg/mL; Antiviral activity in simultaneous treatment, HHV-1 [4, 13]: active; 1 TCID50: non-toxic concentration that showed viral reduction factor, HHV-1 ([5]; 48 h, tested 6.25-50 µg/mL): 0.5 µg/mL; Antiviral activity in simultaneous treatment, HHV-2 [6, 13]: active"
CC(C)CCCc1ccc2c(c1)C(=O)C(Br)=C(Br)C2=O [NQ 5],–,–,15.7 ± 2.7,23.5 ± 1.7,19.7 ± 0.3,–
